Experimental findings from US6359144B1, “Combinatorial libraries of bicyclic guanidine derivatives and compounds therein” (Lion Bioscience AG, priority 1997, dated 2002) are described below.

Structures are written as SMILES. Where “and” joins values, the source holds several entries; their conditions need not be identical. Equal entries are not always repeated.

The target in this test is T1, calmodulin (Homo sapiens, UniProt P0DP23).
T1 construct: purchased Boehringer Mannheim (calmodulin); Sigma (PDE, 5'-nucleotidase)
The test can be described thus: Calmodulin-dependent phosphodiesterase (CaMPDE) assay. It counts as biochemical. Conditions: 53 individual compounds, Table 17. The protocol:
An example of an assay that identifies CaM antagonists is a CaMPDE assay, such as the one whose results are shown in Examples IX to XII, below. Samples are mixed with 50 μl of assay buffer (360 mM Tris, 360 mM Imidazole, 45 mM Mg(CH3COO)2, pH 7.5) and 10 μl of CaCl2 (4.5 mM) to a final volume of 251 μl. 25 μl of calmodulin stock solution (Boehringer Mannheim; 0.01 μg/μl) is then added and the samples then sit at room temperature for 10 minutes. 14 μl of PDE (Sigma; 2 Units dissolved in 4 ml of water; stock concentration: 0.0005 Units/μl) is then added, followed by 50 μl of 5′-nucleotidase (Sigma; 100 Units dissolved in 10 ml of 10 mM Tris-HCl containing 0.5 mM Mg(CH3COO)2, pH 7.0; stock concentration: 10 Units/ml). The samples are then incubated for 10 minutes at 30° C. 50 μl of adenosine 3′,5′-cyclic monophosphate (cAMP) (20 mM in water at pH 7.0) is added, the samples incubated for 1 hour at 30° C. and then vortexed. 200 μl of trichloroacetic acid (TCA) (55% in water) is added to a 200 μl sample aliquot, which is then vortexed and centrifuged for 10 minutes. 80 μl of the resulting supernatants of each sample is transferred to a 96-well plate, with 2 wells each containing 80 μl of each sample. 80 μl of ammonium molybdate (1.1% in 1.1N H2SO4) is then added to all the wells, and the OD of each were determined at 730 nm, with the values later subtracted to the final OD reading. 16 μl of reducing agent (6 g sodium bisulfite, 0.6 g sodium sulfite and 125 mg of 1-amino-2-naphtol-4-sulfonic acid in 50 ml of water) is then added to one of each sample duplicate and 16 μl of water is added to the other duplicate. After sitting for 1 hour at room temperature, the OD of each well is determined at 730 nm. […]
On to `CC(C)(C)C1CCC(CN2C3=NC[C@@H](CC4CCCCC4)N3C[C@H]2CC2CCCCC2)CC1` (some centres unmarked), for which the half-maximal inhibitory concentration (IC50) – broadly, the concentration needed to halve the response being measured – was 4.43 µM.
In the case of `CC(C)(C)C1CCC(CN2C3=NC[C@@H](CC4CCCCC4)N3C[C@H]2C2CCCCC2)CC1` (some centres unmarked), the IC50 was 4.73 µM. The IC50 values of the last two compounds are within 1.5-fold of each other.
The result for `CC(C)(C)C1CCC(CN2C3=NC[C@@H](CC4CCCCC4)N3C[C@@H]2CC2CCCCC2)CC1` (some centres unmarked) reads 2.81 µM; that for `CC(C)(C)C1CCC(CN2C3=NC[C@@H](CC4CCCCC4)N3C[C@@H]2C2CCCCC2)CC1` (some centres unmarked), 4.71 µM.
As to `CC(C)(C)C1CCC(CN2C3=NC[C@@H](C4CCCCC4)N3C[C@H]2C2CCCCC2)CC1` (some centres unmarked), the midpoint of inhibition, the IC50, lay at 15.5 µM.
The result for `CC(C)(C)C1CCC(CN2C3=NC[C@@H](C4CCCCC4)N3C[C@@H]2C2CCCCC2)CC1` (some centres unmarked) reads 10.7 µM.
On to `CC(C)(C)C1CCC(CN2C3=NC[C@H](CC4CCCCC4)N3C[C@H]2CC2CCCCC2)CC1` (some centres unmarked), for which the half-maximal inhibitory concentration (IC50) is 1.89 µM.
Regarding `CC(C)(C)C1CCC(CN2C3=NC[C@H](CC4CCCCC4)N3C[C@H]2C2CCCCC2)CC1` (some centres unmarked), 3.98 µM corresponded to half-maximal inhibition (IC50).
On to `CC(C)(C)C1CCC(CN2C3=NC[C@H](CC4CCCCC4)N3C[C@@H]2CC2CCCCC2)CC1` (some centres unmarked), for which 2.24 µM corresponded to half-maximal inhibition (IC50).
In the case of `CC(C)(C)C1CCC(CN2C3=NC[C@H](CC4CCCCC4)N3C[C@@H]2C2CCCCC2)CC1` (some centres unmarked), the IC50 was 10.1 µM.
`CC(C)(C)C1CCC(CN2C3=NC[C@H](C4CCCCC4)N3C[C@H]2C2CCCCC2)CC1` (some centres unmarked) had an IC50 of 13.1 µM. This IC50 and that of the compound before are within 1.5-fold of each other.
`CC(C)(C)C1CCC(CN2C3=NC[C@H](C4CCCCC4)N3C[C@@H]2C2CCCCC2)CC1` (some centres unmarked) showed an IC50 of 14.6 µM.
`CC(C)(C)C1CCC(CN2C3=NC[C@H](Cc4ccccc4)N3C[C@@H]2Cc2ccccc2)CC1` (some centres unmarked): the concentration for half-maximal inhibition (IC50) is 21.5 µM.
`CC(C)(C)C1CCC(CN2C3=NCC(C4CCCCC4)N3CC2CC2CCCCC2)CC1` (single isomer, unassigned) [listing 1 of 4 here] had an IC50 of 8.65 µM.
The compound `CC(C)(C)C1CCC(CN2C3=NCC(C4CCCCC4)N3CC2CC2CCCCC2)CC1` (single isomer, unassigned) [listing 2 of 4 here] showed an IC50 of 3.19 µM.
On to `CC(C)(C)C1CCC(CN2C3=NCC(C4CCCCC4)N3CC2CC2CCCCC2)CC1` (single isomer, unassigned) [listing 3 of 4 here], for which the IC50 was 2.4 µM. The IC50 values of the last two compounds are within 1.5-fold of each other.
Compound `CC(C)(C)C1CCC(CN2C3=NCC(C4CCCCC4)N3CC2CC2CCCCC2)CC1` (single isomer, unassigned) [listing 4 of 4 here] gave an IC50 of 5.21 µM. This IC50 lies about 2.2-fold higher than the previous one.
Next, `C1CCC(CC2CN3C(=NCC3CC3CCCCC3)N2CCC23CC4CC(CC(C4)C2)C3)CC1` (single isomer, unassigned) [D-cha/D-cha/1-adamantaneacetic acid]: 10.2 µM.
Take `C1CCC(CC2CN3C(=NCC3CC3CCCCC3)N2CCC23CC4CC(CC(C4)C2)C3)CC1` (single isomer, unassigned) [D-cha/L-Cha/1-adamantaneacetic acid]: the IC50 was 3.97 µM.
`C1CCC(CC2CN3C(=NCC3C3CCCCC3)N2CCC23CC4CC(CC(C4)C2)C3)CC1` (single isomer, unassigned) [D-chg/D-cha/1-adamantaneacetic acid] had a half-inhibitory concentration (IC50) of 15.1 µM.
In turn, `C1CCC(C2CN3C(=NCC3C3CCCCC3)N2CCC23CC4CC(CC(C4)C2)C3)CC1` (single isomer, unassigned) [D-chg/D-chg/1-adamantaneacetic acid] showed a concentration for half-maximal inhibition (IC50) of 21.5 µM. The IC50 values of the last two compounds are within 1.5-fold of each other.
For `C1CCC(CC2CN3C(=NCC3C3CCCCC3)N2CCC23CC4CC(CC(C4)C2)C3)CC1` (single isomer, unassigned) [D-chg/L-Cha/1-adamantaneacetic acid], the half-maximal inhibitory concentration (IC50) is 4.74 µM and 6.46 µM.
Next, `C1CCC(C2CN3C(=NCC3C3CCCCC3)N2CCC23CC4CC(CC(C4)C2)C3)CC1` (single isomer, unassigned) [D-chg/L-Chg/1-adamantaneacetic acid]: 12.9 µM; `C1CCC(CC2CN3C(=NCC3CC3CCCCC3)N2CCC23CC4CC(CC(C4)C2)C3)CC1` (single isomer, unassigned) [L-Cha/D-cha/1-adamantaneacetic acid]: 2.25 µM.
In the case of `C1CCC(CC2CN3C(=NCC3CC3CCCCC3)N2CCC23CC4CC(CC(C4)C2)C3)CC1` (single isomer, unassigned) [L-Cha/L-Cha/1-adamantaneacetic acid], half-maximal inhibition (IC50) required 7.86 µM.
The compound `C1CCC(CC2CN3C(=NCC3C3CCCCC3)N2CCC23CC4CC(CC(C4)C2)C3)CC1` (single isomer, unassigned) [L-Chg/D-cha/1-adamantaneacetic acid] had an IC50 of 2.83 µM.
Regarding `C1CCC(C2CN3C(=NCC3C3CCCCC3)N2CCC23CC4CC(CC(C4)C2)C3)CC1` (single isomer, unassigned) [L-Chg/D-chg/1-adamantaneacetic acid], the IC50 is 4.61 µM. Compared with the last compound, the IC50 is about 1.6-fold higher.
Consider `C1CCC(CC2CN3C(=NCC3C3CCCCC3)N2CCC23CC4CC(CC(C4)C2)C3)CC1` (single isomer, unassigned) [L-Chg/L-Cha/1-adamantaneacetic acid], for which the half-inhibitory concentration (IC50) is 13.4 µM and 25.8 µM.
`C1CCC(C2CN3C(=NCC3C3CCCCC3)N2CCC23CC4CC(CC(C4)C2)C3)CC1` (single isomer, unassigned) [L-Chg/L-Chg/1-adamantaneacetic acid] gave an IC50 of 19.8 µM.
The result for `CCN1C2=NC[C@@H](C)N2C[C@@H]1Cc1ccccc1` [D-ala/L-Phe/acetic acid] reads 40.1 µM.
`C1CCC(C[C@@H]2CN=C3N2C[C@@H](C2CCCCC2)N3CCC23CC4CC(CC(C4)C2)C3)CC1` [D-cha/D-chg/1-adamantaneacetic acid] had an IC50 of 17.4 µM.
Take `C1CCC(C[C@@H]2CN=C3N2C[C@H](C2CCCCC2)N3CCC23CC4CC(CC(C4)C2)C3)CC1` [D-cha/L-Chg/1-adamantaneacetic acid]: the concentration for half-maximal inhibition (IC50) was 10.1 µM.
`C1CCC(CCCN2C3=NC[C@@H](C4CCCCC4)N3C[C@@H]2CC2CCCCC2)CC1` [D-chg/L-Cha/cyclohexylpropionic acid] gave a half-inhibitory concentration (IC50) of 15.7 µM.
`C1CCC(C[C@H]2CN=C3N2C[C@@H](C2CCCCC2)N3CCC23CC4CC(CC(C4)C2)C3)CC1` [L-Cha/D-chg/1-adamantaneacetic acid] gave an IC50 of 6.11 µM.
For the compound `C1CCC(C[C@H]2CN=C3N2C[C@H](C2CCCCC2)N3CCC23CC4CC(CC(C4)C2)C3)CC1` [L-Cha/L-Chg/1-adamantaneacetic acid], the IC50 was 16.2 µM.
`CC(C)C[C@@H]1CN2C(=NC[C@@H]2C2CCCCC2)N1CCC12CC3CC(CC(C3)C1)C2` [L-Chg/D-leu/1-adamantaneacetic acid]: the midpoint of inhibition, the IC50, lay at 16.9 µM. The IC50 values of the last two compounds are within 1.5-fold of each other.
The compound `CC(C)C[C@@H]1CN2C(=NC[C@@H]2C2CCCCC2)N1CCCC1CCCCC1` [L-Chg/D-leu/cyclohexylpropionic acid] gave a half-maximal inhibitory concentration (IC50) of 25.2 µM.
The result for `CCN1C2=NC[C@H](Cc3ccccc3)N2C[C@H]1Cc1c[nH]c2ccccc12` [L-Phe/D-trp/acetic acid] reads 19.5 µM; that for `c1ccc(C[C@H]2CN=C3N(CCC45CC6CC(CC(C6)C4)C5)[C@@H](Cc4ccccc4)CN32)cc1` [L-Phe/L-Phe/1-adamantaneacetic acid], 16.7 µM.
Compound `O=[N+]([O-])c1ccc(CCN2C3=NC[C@H](Cc4ccccc4)N3C[C@@H]2Cc2ccccc2)c([N+](=O)[O-])c1` [L-Phe/L-Phe/2,4-dinitrophenylacetic acid] showed an IC50 of 12.5 µM.
In the case of `c1ccc(CC2CN3C(=NCC3Cc3ccccc3)N2CCc2ccc(-c3ccccc3)cc2)cc1` [L-Phe/L-Phe/4-biphenylacetic acid], half-maximal inhibition (IC50) required 14.1 µM.
Take `c1ccc(CC2CN3C(=NCC3Cc3ccccc3)N2CCCCC2CCCCC2)cc1` [L-Phe/L-Phe/cyclohexylbutyric acid]: the midpoint of inhibition, the IC50, lay at 6.98 µM.
`c1ccc(CC2CN3C(=NCC3Cc3ccccc3)N2CCCC2CCCCC2)cc1` [L-Phe/L-Phe/cyclohexylpropionic acid]: 21.5 µM corresponded to half-maximal inhibition (IC50).
The result for `CCN1C2=NC[C@H](Cc3ccccc3)N2C[C@@H]1Cc1c[nH]c2ccccc12` [L-Phe/L-Trp/acetic acid] reads 24.8 µM.
